# Laboratory results reported in patent US20160130259A1, “SUBSTITUTED BENZOFURAN COMPOUNDS AND METHODS OF USE THEREOF FOR THE TREATMENT OF VIRAL DISEASES” (priority 2013, published 2016).
# What was measured:
# HCV replicon genotype 1a = assay: HCV replicon assay, genotype 1a (cell ELISA for NS3/4A); format: cell-based; settings: Hepatitis C virus, 96 h, read-out: 1a IC50 (nM)
# Protocol: (§1) Measurement of inhibition by compounds was performed using the HCV replicon system. Several different replicons encoding different HCV genotypes or mutations were used. In addition, potency measurements were made using different formats of the replicon assay, including different ways of measurements and different plating formats. See Jan M. Vrolijk et al., A replicons-based bioassay for the measurement of interferons in patients with chronic hepatitis C, 110 J. Virological Methods 201 (2003); Steven S. Carroll et al., Inhibition of Hepatitis C Virus RNA Replication by 2′-Modified Nucleoside Analogs, 278(14) J. Biological Chemistry 11979 (2003). However, the underlying principles are common to all of these determinations, and are outlined below.
# (§2) Stable neomycin phosphotransferase encoding replicons-harboring cell lines were used, so all cell lines were maintained under G418 selection prior to the assay. Potency was determined using a cell ELISA assay with an antibody to the replicons encoded NS3/4a protease. See Caterina Trozzi et al., In Vitro Selection and Characterization of Hepatitis C Virus Serine Protease Variants Resistant to an Active-Site Peptide Inhibitor, 77(6) J. Virol. 3669 (2003). To initiate an assay, replicon cells were plated in the presence of a dilution series of test compound in the absence of G418. Typically, the assays were performed in a 96-well plate formate for manual operation, or a 384-well plate format for automated assay. Replicon cells and compound were incubated for 96 hours. At the end of the assay, cells were washed free of media and compound, and the cells were then lysed. RNA was quantified indirectly through detection of replicon-encoded NS3/4A protein levels, through an ELISA-based assay with an antibody specific for NS3/4A. IC50 determinations were calculated as a percentage of a DMSO control by fitting the data to a four-parameter fit function and the data obtained is provided in the table below.
# (§3) Data for selected compounds of the present invention was obtained for genotypes 1a and 1b using this method and is provided in the table below: […]
# HCV replicon genotype 1b = assay: HCV replicon assay, genotype 1b (cell ELISA for NS3/4A); format: cell-based; settings: Hepatitis C virus, 96 h, read-out: 1b IC50 (nM)
# Protocol: as §1, §2, §3
Structure (SMILES),IC50 (HCV replicon genotype 1a) [nM],IC50 (HCV replicon genotype 1b) [nM]
"CNC(=O)c1c(-c2ccc(F)cc2)oc2cc(N(C)S(C)(=O)=O)c(-c3cc4n(c(=O)c3)CCn3c-4cc4c(F)cccc43)cc12 [Compound 30, 5-(12-fluoro-4-oxo-6,7-dihydro-4H-pyrido[2′,1′:3,4]pyrazino[1,2-a]indol-2-yl)-2-(4-fluorophenyl)-N-methyl-6-(N-methylmethylsulfonamido)benzofuran-3-carboxamide]",3.52,19
"CNC(=O)c1c(-c2ccc(F)cc2)oc2cc(N(C)S(C)(=O)=O)c(-c3cc4n(c(=O)n3)CCn3c-4cc4c(F)cccc43)cc12 [Compound 31, 5-(12-fluoro-4-oxo-6,7-dihydro-4H-pyrimido[6′,1′:3,4]pyrazino[1,2-a]indol-2-yl)-2-(4-fluorophenyl)-N-methyl-6-(N-methylmethylsulfonamido)benzofuran-3-carboxamide]",3.48,6.95
